The test system of data set [1] is cardiac β-receptors (beta 1). Kind of data set: Beta-receptor blocking activity: inhibition of isoprenaline (1 mcg/kg i.v.) induced heart rate increase (beta 1-blockage) in rabbits. Type of data set: in vivo, rabbit. The settings on record: for β1-Blockade ID30 fcor / β1-Blockade ID50 fcor: i.v., rabbits; for β1-Blockade ID30 fcor: 30% inhibition of isoprenaline effect on heart rate; for β1-Blockade ID50 fcor: 50% inhibition of isoprenaline effect on heart rate. As to the method: Rabbits were fixed in wooden cages and the blood pressure derived using a catheter placed in the lateral ear artery (details as under 2.). From the blood pressure pulsations, the heart rate was digitally read using an integrator. The beta-receptor blocking quality was determined by measuring inhibitory action against 1 mcg/kg i.v. isoprenaline.

Data set [2] has as its system CSE reflex (arterial blood pressure). Kind of data set: Vasodilating activity: weakening of the carotid occlusion (CSE) reflex blood pressure rise in anesthetized rabbits. Type of data set: in vivo, rabbit. To be noted: for ED (30 mm Hg): Oryctolagus cuniculus, iv; for BQ (ID50 fcor / ED-30 mm Hg): ratio of beta-blocking ID50 to vasodilating ED-30. Here is the method:
Rabbits were anesthetized with 26%-urethane 5 ml/kg i.v. For a continual measurement of the arterial blood pressure a catheter was implanted into the Arteria femoralis. The blood pressure was measured by means of an electromechanical pressure transducer (Statham P 23/Db). The impulses were registered on a direct printer and after calibration evaluated with a mercury manometer. After determining the starting value, both carotid arteries (Aa. carotides) were occluded for 2 min and thereby the blood pressure temporarily raised (Carotis-Sinus-Relief Reflex-CSE). Following that, the substances were injected in increasing doses and 8 min. later the CSE reflex induced again. In periods of 15 min each, in logarithmically rising dosage (factor 2), the test substance was injected again and the CSE value induced again. Substances which under these conditions weaken the rise of the blood pressure under CSE can be regarded as vasodilating. To estimate the blood pressure lowering quality, the dose was calculated which weakens the CSE reflex by 30 mm Hg (ED-30 mm Hg).

A short description of data set [3]: Tolerability of i.v. doses. The settings on record: in vivo, iv.
The mark [4] stands for this setting: dose weakening the CSE reflex by 30 mm Hg, anesthetized rabbits, read-out: Vasodilatation CSE ED-30.
Where [5] appears, read: read-out: Vasodilatation CSE ED-30.
The mark [6] stands for this setting: statement in text on reference substances, read-out: ED-30 (vasodilating quality).

Read-outs that look alike come from different tables or passages of the source.

With `O=C(O)/C=C/C(=O)O.O=C1Nc2cccc(OCC(O)CNCCOc3ccc(O)cc3)c2C1Cc1ccn[nH]1` (stereo not drawn) [Example 7e, 4-{2-hydroxy-3-[2-(4-hydroxyphenoxy)-ethylamino]-propoxy}-3-(pyrazol-5-yl-methyl)-indolin-2-one fumarate], in data set [1], the “β1-Blockade ID30 fcor” value worked out at 65 µg/kg and the “β1-Blockade ID50 fcor” value worked out at 254 µg/kg. In data set [2] (setting [4]), the ED (30 mm Hg) amounted to 0.54 mg/kg. Also, the “BQ (ID50 fcor / ED-30 mm Hg)” value in data set [2] is on record as 0,47.
Taken in the same sequence, the figures for `O=C1Nc2cccc(OCC(O)CNCCOc3ccc(O)cc3)c2C1=Cc1ccccc1C(=O)O` (stereo not drawn) [Example 1r, 4-{2-hydroxy-3-[2-(4-hydroxyphenoxy)-ethylamino]-propoxy}-3-(2-carboxybenzylidene)-indolin-2-one] were 205 µg/kg, 823 µg/kg, 2.03 mg/kg and 0,41.
Take `CC(C)NCC(O)COc1cccc2c1C(=Cc1ccccc1O)C(=O)N2` (stereo not drawn) [Example 1a, 4-(2-hydroxy-3-isopropylaminopropoxy)-3-(2-hydroxybenzylidene)-indolin-2-one]: in data set [1], the “β1-Blockade ID30 fcor” value is 98 µg/kg and the “β1-Blockade ID50 fcor” value is 317 µg/kg. For the same molecule, in data set [2] (setting [4]), the ED (30 mm Hg) amounted to 2.71 mg/kg. Moreover, the “BQ (ID50 fcor / ED-30 mm Hg)” value in data set [2] was 0,12.
On to `O=C1Nc2cccc(OCC(O)CNCCOc3ccc(O)cc3)c2C1Cc1ccccc1O` (stereo not drawn) [Example 7d, 4-{2-hydroxy-3-[2-(4-hydroxyphenoxy)-ethylamino]-propoxy}-3-(2-hydroxybenzyl)-indolin-2-one cyclohexylsulphaminate], for which, in data set [1], the “β1-Blockade ID30 fcor” value was determined as 27 µg/kg and the “β1-Blockade ID50 fcor” value came to 85 µg/kg. For the same molecule, the ED (30 mm Hg) in data set [2] (setting [4]) came to 0.97 mg/kg. For the same molecule, in data set [2], the “BQ (ID50 fcor / ED-30 mm Hg)” value is on record as 0,09.
In the same order, the values of `O=C1Nc2cccc(OCC(O)CNCCOc3ccccc3)c2C1=Cc1ccn[nH]1` (stereo not drawn) [Example 1u, 4-[2-hydroxy-3-(2-phenoxyethylamino)-propoxy]-3-(pyrazol-5-yl)-methyleneindolin-2-one] are 9,9 mcg/kg, 58 µg/kg, 0.331 mg/kg and 0,18.
As to `O=C(O)/C=C/C(=O)O.O=C1Nc2cccc(OCC(O)CNCCOc3ccccc3)c2C1Cc1ccn[nH]1` (stereo not drawn) [Example 7f, 4-[2-hydroxy-3-(2-phenoxyethylamino)-propoxy]-3-(pyrazol-5-yl-methyl)-indolin-2-one fumarate], in data set [1], the “β1-Blockade ID30 fcor” value was 334 µg/kg and the “β1-Blockade ID50 fcor” value is 1020 µg/kg. Further, the ED (30 mm Hg) in data set [2] (setting [4]) was found to be 0.43 mg/kg. The “BQ (ID50 fcor / ED-30 mm Hg)” value in data set [2] is 2,37.
`O=C(O)c1ccccc1.O=C1Nc2cccc(OCC(O)CNCCOc3ccc(O)cc3)c2C1=Cc1ccccc1O` (stereo not drawn) [Example 1p, 4-{2-hydroxy-3-[2-(4-hydroxyphenoxy)-ethylamino]-propoxy}-3-(2-hydroxybenzylidene)-indolin-2-one benzoate]: in data set [1], the “β1-Blockade ID30 fcor” value was found to be 192 µg/kg and the “β1-Blockade ID50 fcor” value amounted to 932 µg/kg. For the same molecule, the ED (30 mm Hg) in data set [2] (setting [5]) is 0.75 mg/kg. In data set [2], the “BQ (ID50 fcor / ED-30 mm Hg)” value is 1,24.
Consider `CSc1ccc(C=C2C(=O)Nc3cccc(OCC(O)CNC(C)C)c32)c(O)c1` (stereo not drawn) [Example 1d, 4-(2-hydroxy-3-isopropylaminopropoxy)-3-(2-hydroxy-4-methylthiobenzylidene)-indolin-2-one], for which, in data set [1], the “β1-Blockade ID30 fcor” value was determined as 21 µg/kg and the “β1-Blockade ID50 fcor” value turned out to be 46 µg/kg. The ED (30 mm Hg) in data set [2] (setting [4]) is 1.48 mg/kg. The “BQ (ID50 fcor / ED-30 mm Hg)” value in data set [2] is 0,03.
With `CC(C)NCC(O)COc1cccc2ccccc12` (stereo not drawn) [Propranolol, 1-(isopropylamino)-3-(1-naphthyloxy)-2-propanol, reference compound], in data set [1], the “beta-blocking activity (in words)” value is given as “potent beta-blockers” and the “β1-Blockade ID30 fcor” value was 126 µg/kg. Further, in data set [2], the “vasodilating quality (in words)” value was “do not have or at least do not have any relevantly vasodilating quality” and the “BQ (ID50 fcor / ED-30 mm Hg)” value is 0,01. In addition, the ED (30 mm Hg) in data set [2] (read-out: ED-30 (vasodilating quality)) was above 9 mg/kg. In addition, in data set [2] (setting [5]), the ED (30 mm Hg) stood at 30 mg/kg. Further, in data set [3] (not tolerated at all, read-out: dose above which not tolerated at all), the MTD is above 30 mg/kg. Moreover, the MTD in data set [3] (poorly tolerated, read-out: dose above which poorly tolerated) was above 10 mg/kg.
With `CC(C)NCC(O)COc1cccc2c1CC(=O)N2` (stereo not drawn) [BM 14.171, 4-(2-hydroxy-3-isopropylaminopropoxy)oxindol, reference compound], in data set [1], the “beta-blocking activity (in words)” value was “potent beta-blockers”, the “β1-Blockade ID30 fcor” value is 1,2 mcg/kg and the “β1-Blockade ID50 fcor” value was 4,3 mcg/kg. Moreover, in data set [2], the “vasodilating quality (in words)” value is “do not have or at least do not have any relevantly vasodilating quality” and the “BQ (ID50 fcor / ED-30 mm Hg)” value is recorded as 0,0004. In addition, the ED (30 mm Hg) in data set [2] (setting [4]) came to 11.6 mg/kg. In addition, the ED (30 mm Hg) in data set [2] (setting [6]) was above 9 mg/kg.
Consider `COc1ccc(CCNCC(O)COc2cccc3c2CC(=O)N3)cc1` (stereo not drawn) [BM 12.946, 4-<2-hydroxy-3-[2-(4-methoxyphenyl)ethylamino]propoxy>oxindol, reference compound], for which, in data set [1], the “beta-blocking activity (in words)” value was “potent beta-blockers”, the “β1-Blockade ID30 fcor” value was determined as 46 µg/kg and the “β1-Blockade ID50 fcor” value was found to be 188 µg/kg. In data set [2], the “vasodilating quality (in words)” value is listed as “do not have or at least do not have any relevantly vasodilating quality” and the “BQ (ID50 fcor / ED-30 mm Hg)” value is recorded as 0,02. Also, in data set [2] (setting [4]), the ED (30 mm Hg) was determined as 9.13 mg/kg. The ED (30 mm Hg) in data set [2] (setting [6]) is above 9 mg/kg.

The values above are taken from patent US4642309A, “Indolin-2-one derivatives preparation thereof and intermediates for the preparation thereof” (Boehringer Mannheim GmbH, priority 1983, dated 1987).
